Earlier results in US10376470B2, “Oral tablet formulation consisting of fixed combination of rosuvastatin and ezetimibe for treatment of hyperlipidemia and cardiovascular diseases” (Althera Life Sciences, LLC, priority 2012, dated 2019).

O=C1[C@H](CC[C@H](O)c2ccc(F)cc2)[C@@H](c2ccc(O)cc2)N1c1ccc(F)cc1 [Ezetimibe, ezetimibe]
Solubility in water: practically insoluble
